From patent US7514240B2, “EGR-EGFR complex” (Japan Science and Technology Agency, priority 2002, dated 2009) come the findings set out here.

One may read the IC50 as the concentration needed to halve the response being measured.

For one experiment, the target named is T1, EGFR (A431 cell) (Homo sapiens, UniProt P00533).
T1 construct: host or cells: A431 cells
The experiment can be described thus: EGF-EGFR binding inhibition assay (Eu-EGF, A431 cells, DELFIA time-resolved fluorescence). As to conditions: Eu-EGF 5 nmol/L, compounds at 1, 3, 10 and 30 μg/mL, nonlinear least square fitting. On the procedure: A431 cells (human squamous cell carcinoma cells, purchased from ATCC) for use in this experiment were subcultured using a medium (hereinafter denoted as a medium) prepared by adding inactivated FBS (JRH), Penicillin-streptmycin (GIBCO), and Amphotelicin B (Sigma) at final concentrations of 10 vol %, 50 U/mL-50 μg/mL, and 1 μg/mL, respectively, to DMEM (Sigma). A431 cells suspended in the medium were inoculated into a 96-well microtiter plate (black, COSTAR) at 10,000 cells/100 μL/well, and then pre-cultured overnight in a CO2 incubator (37° C., 5% CO2). After the media within the wells had been completely removed, the wells were washed once in 50 mmol/L HEPES-HCl (pH 7.8, hereinafter denoted as a Buffer) containing 138 mmol/L NaCl, 5 mmol/L KCl, 1.2 mmol/L MgSO4, 1.2 mmol/L CaCl2, 75 μmol/L EDTA and 0.2 vol % BSA, and then a Buffer was added at 49 μL/well. Subsequently, DMSO was added at 1 μL/well, and then Eu-EGF that had been diluted with a Buffer at various concentrations were added at 50 μL/well. The plate was incubated at room temperature for 1 hour, washed 5 times with an ice-cold buffer (200 μL/well), and then a DELFIA enhancement reagent (PerkinElmer life sciences) was added at 100 μL/well. After further 30 minutes of incubation at room temperature, time-resolved fluorescence was measured using a plate reader (ARVO-sx, PerkinElmer life sciences). Excitation wavelength and emission wavelength used herein were 340 nm and 615 nm, respectively.
A value of specific binding was calculated by subtracting a measured value of non-specific binding from a value measured at each ligand concentration. […]
A representative compounds for site 1 of 2) in Example 6, a representative compounds for site 2 of 2) in Example 6, and a representative compounds for site 3 of 1) in Example 6 were subjected to this assay. […] After 30 minutes of incubation at room temperature, time-resolved fluorescence was measured using a plate reader (ARVO-sx, PerkinElmer life sciences). […] Assay was run in duplicate, and then data were processed using each average measured value. […]

Experiment [1] has as its target T2, EGF receptor of A431 cells (Homo sapiens, UniProt P00533).
T2 construct: endogenous in cells; host or cells: A431 cells
As to the kind of experiment: EGFR antagonist activity using EGFR phosphorylation as an index (western blotting). It counts as cell-based. Conditions: EGF 100 ng/mL. As for the experimental part: When EGFR is activated by binding of a ligand, intracellular regions are phosphorylated. This phosphorylation is detectable using a phosphorylated receptor-specific antibody. A431 cells were cultured (BNR-110M, ESPEC CORP.) using Dulbecco's Modified Eagle's Medium (Sigma) containing 10% fetal calf serum (JRH Bioscience) under an environment of 5% CO2 at 37° C. for 1 day. The cells were then cultured in a serum-free medium for 1 day. When agonist activity was assayed, a medium containing a sample at a concentration of 10 μg/mL was added, and then the resultant was allowed to stand for 10 minutes. Furthermore, when antagonist activity was assayed, a medium containing a sample at a concentration of 10 μg/mL or 100 μg/mL was added, and then the resultant was allowed to stand for 20 minutes. […] The media were removed, the cells were washed with cooled phosphate buffered saline (PBS, Sigma), and then a heated cell lysis buffer (125 mmol/L Tris (Wako Pure Chemical Industries, Ltd.)-hydrochloric acid (Wako Pure Chemical Industries, Ltd.) buffer (pH 6.8) containing 20% glycerol (Wako Pure Chemical Industries, Ltd.), 2% SDS (Sigma), 5% 2-Mercaptoethanol (Sigma), and 0.025 mg/mL Bromo Phenol Blue (Sigma)) was added, thereby obtaining a cell lysate solution. The obtained cell lysate was applied to 7.5% polyacrylamide gel (e-PAGEL, ATTO Corporation), and then subjected to separation by electrophoresis (AE-6400, ATTO Corporation) under a condition of 30 mA per sheet of gel using Tris/glycine/SDS buffer (Bio-Rad Laboratories, Inc.). The resultant was transferred to a polyvinylidene difluoride (PVDF) membrane (clear blot membrane-P, ATTO Corporation) under conditions of 200 mA for 1 hour using semi-dry blotting system (AE-6675, ATTO Corporation). The PVDF membrane was blocked using PBS containing 5% skim milk (Wako Pure Chemical Industries, Ltd.) at room temperature for 1 hour.

T2 sequence (P00533 25-1210): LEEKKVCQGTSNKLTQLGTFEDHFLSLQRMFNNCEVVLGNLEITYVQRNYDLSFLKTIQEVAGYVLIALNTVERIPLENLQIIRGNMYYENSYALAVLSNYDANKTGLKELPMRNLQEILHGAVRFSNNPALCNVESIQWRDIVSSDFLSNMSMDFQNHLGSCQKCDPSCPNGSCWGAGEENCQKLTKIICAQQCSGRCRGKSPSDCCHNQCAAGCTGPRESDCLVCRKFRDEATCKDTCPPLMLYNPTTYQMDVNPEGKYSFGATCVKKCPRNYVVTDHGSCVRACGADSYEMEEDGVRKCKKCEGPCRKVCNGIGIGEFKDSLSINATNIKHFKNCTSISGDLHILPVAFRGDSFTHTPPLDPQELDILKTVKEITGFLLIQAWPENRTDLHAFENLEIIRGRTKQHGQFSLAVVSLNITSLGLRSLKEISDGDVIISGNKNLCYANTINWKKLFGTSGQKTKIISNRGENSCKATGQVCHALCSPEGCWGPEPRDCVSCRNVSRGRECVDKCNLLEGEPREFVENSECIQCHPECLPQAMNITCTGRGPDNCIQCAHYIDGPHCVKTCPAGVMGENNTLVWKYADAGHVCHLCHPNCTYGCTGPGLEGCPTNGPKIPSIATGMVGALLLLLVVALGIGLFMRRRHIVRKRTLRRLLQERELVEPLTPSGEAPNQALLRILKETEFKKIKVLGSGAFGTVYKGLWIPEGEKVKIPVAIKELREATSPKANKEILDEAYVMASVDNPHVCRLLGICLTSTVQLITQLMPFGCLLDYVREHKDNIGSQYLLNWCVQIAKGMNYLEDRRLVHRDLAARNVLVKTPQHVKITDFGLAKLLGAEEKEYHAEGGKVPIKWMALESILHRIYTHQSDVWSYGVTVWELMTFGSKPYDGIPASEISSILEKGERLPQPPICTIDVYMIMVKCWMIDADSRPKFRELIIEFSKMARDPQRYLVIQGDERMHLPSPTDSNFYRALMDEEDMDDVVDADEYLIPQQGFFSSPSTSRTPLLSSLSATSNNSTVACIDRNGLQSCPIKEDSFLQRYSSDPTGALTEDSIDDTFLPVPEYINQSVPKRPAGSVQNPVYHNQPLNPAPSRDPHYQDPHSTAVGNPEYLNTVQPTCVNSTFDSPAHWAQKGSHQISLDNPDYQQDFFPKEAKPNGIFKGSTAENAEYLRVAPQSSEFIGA
T1 sequence (P00533 25-1210): as above

On to `CCCCCCSc1nc2c(c(=O)[nH]c(=O)n2C)n1CCC` [8-hexylsulfanyl-3-methyl-7-propyl-3,7-dihydro-purine-2,6-dione], for which the IC50 on EGFR (A431 cell) was 40.1 µM. Moreover, in experiment [1] (sample 10 μg/mL), the “inhibition of activation of the EGF receptor due to EGF (EGFR phosphorylation)” value (from here on “inhibition”) is “inhibited activation of the EGF receptor”.

Compound `CCc1cc2c(cc1C(=O)CSc1ncccc1C(=O)O)C(C)(C)CCC2(C)C` [2-[2-(3-ethyl-5,5,8,8-tetramethyl-5,6,7,8-tetrahydro-naphthalene-2-yl)-2-oxo-ethylsulfanyl]-nicotinic acid] had an IC50 on EGFR (A431 cell) of 57.8 µM. In addition, the “inhibition” value in experiment [1] (sample 100 μg/mL) is reported as “inhibited activation of the EGF receptor”.

For `CN1CCN(CCCN2c3ccccc3Sc3ccc(C(F)(F)F)cc32)CC1.Cl.Cl` [10-[3-(4-methyl-piperazine-1-yl)-propyl]-2-trifluoromethyl-10H-phenothiazine dihydrochloride], the IC50 on EGFR (A431 cell) is 16.7 µM. Also, the “inhibition” value in experiment [1] (sample 10 μg/mL) is on record as “inhibited activation of the EGF receptor”.
